Test results from patent US9061023B2, “Management and treatment of benign prostatic hyperplasia” (CSIR, priority 2007, dated 2015).

How the values were obtained:
[1] = DPPH antioxidant screen (radical scavenging capacity)
Method: The antioxidant assay was based on the DPPH assay. DPPH is a radical and when a compound with radical scavenging properties reacts with DPPH, the purple colour disappears and a yellow colour is observed. The decolourisation of a purple colour to a yellow colour is measured by a chromameter. The intensity of the yellow colour gives an indication of antioxidant activity. […] The antioxidant activity was expressed as percentage radical scavenging capacity (RSC). […] This evaluation was carried out at the CSIR, Biosciences, Bioprospecting Platform. The 1,1-diphenyl-2-picrylhydrazyl (DPPH) assay was used to investigate the scavenging properties of extracts and pure compounds. […] This is quantified by the decrease of absorbance at wavelength 515 nm in the spectrophotometer. DPPH(purple)+([…](yellow)+(A·)n^26 Since this was a colorimetric test, the appearance of the yellow colour was measured using a chromameter. The final appearance of a more intense yellow colour was used as a good indication of a radical scavenging ability of the extract or compound and this is directly proportional to its antioxidant activity. The antioxidant activity was directly related to the total amount of phenolics and flavonoids present in that particular extract. This method was sensitive enough to indicate and monitor the presence of phenolic-type compounds. […] Spots with good radical scavenging properties turned yellow and the intensity was measured by a chromameter^5. […] The activity of the compound or extract was measured against the reference compound, epigallocatechin gallate.

[2] = molecular target: steroid 5α-reductase enzyme (Rattus norvegicus (Rat), UniProt P24008); assay: In vitro steroid 5α-reductase assay (testosterone EIA); format: biochemical, Wistar rats; settings: for IC50: reference compound data
Method: In vitro biological assays of the extracts, compounds and mixtures of compounds were undertaken to determine their inhibition of the enzyme 5α-reductase. The efficacy of each isolated compound as well as the crude spray-dried extract was expressed as percentage inhibitory activity and these compounds were tested at different concentrations.
The inhibitory effect of the crude extract, the isolated compounds and a mixture of the compounds on the steroid 5α-reductase was investigated and the results are given in Table 2.
This work was performed at the MDS Pharma Services, Pharmacology Laboratories, Taiwan. The assay was an in vitro evaluation of the ability of an extract or a pure compound to inhibit the steroid 5α-reductase enzyme from metabolizing testosterone into dihydrotestosterone. This is an enzyme-immunoassay (EIA) for quantitative determination of testosterone in human serum or plasma. The significance of this type of inhibition is that it can lead to eradication of benign prostatic hyperplasia (BPH). Two distinct isozymes are found in mice, rats, monkeys and humans: type 1 and II. Each of these isozymes is differentially expressed in tissues and developmental stages. In human, type 1 steroid 5α-reductase is predominant in the sebaceous glands of most regions of skin, including scalp and liver and is responsible for approximately one third of circulating DHT. Inhibitors of steroid 5α-reductase may be of benefit in the treatment of androgenetic alopecia. This is a specific binding assay whereby the biochemical assay results were expressed as percentage inhibition. Finasteride was used as a reference compound in all experiments.
The method employed was adapted from the scientific literature to maximize reliability and reproducibility^25. The steroid 5α-reductase enzyme was isolated from the liver of Wistar rats. The test compound was incubated with 20 μg/mL of steroid 5α-reductase preparation which contains 1 μM testosterone and 50 μM NADPH in DTT buffer, pH 6.5 for 30 minutes at 37° C. The reaction was stopped by addition of 1N HCl and neutralized by 1N NaOH and testosterone was quantified using a testosterone EIA Kit. Compounds were screened at 10 μM.

[3] = test system: steroid 5α-reductase enzyme; settings: reported in literature (ref 18); cited from earlier work
5α-reductase = settings: men with smaller prostates, background; cited from earlier work

steroid 5α-reductase enzyme (Rattus norvegicus (Rat), UniProt P24008), sequence (P24008 whole entry): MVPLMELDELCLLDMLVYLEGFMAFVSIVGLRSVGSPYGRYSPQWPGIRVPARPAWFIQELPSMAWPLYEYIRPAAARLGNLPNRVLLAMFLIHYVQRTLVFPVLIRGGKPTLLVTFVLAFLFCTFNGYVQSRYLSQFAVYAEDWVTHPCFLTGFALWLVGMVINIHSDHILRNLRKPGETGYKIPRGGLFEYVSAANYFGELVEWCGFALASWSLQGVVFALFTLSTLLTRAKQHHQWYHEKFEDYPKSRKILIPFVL

O=C(O[C@@H]1Cc2c(O)cc(O)cc2O[C@@H]1c1cc(O)c(O)c(O)c1)c1cc(O)c(O)c(O)c1 [Epigallocatechin gallate, reference compound]
% RSC ([1]; 0.01 ppm): 8% | % RSC ([1]; 0.1 ppm): 8% | % RSC ([1]; 1 ppm): 61% | % RSC ([1]; 10 ppm): 95% | % RSC ([1]; 100 ppm): 95%

O=c1c(O)c(-c2ccc(O)c(OC3OC(CO)C(O)C(O)C3O)c2)oc2cc(O)cc(O)c12 (centres unmarked) [Compound (3), 3,5,7-Trihydroxy-2-[4-hydroxy-3-(3,4,5-trihydroxy-6-hydroxymethyltetrahydropyran-2-yloxy)-phenyl]-chromen-4-one]
inhibition at 1 µM ([2]; test concentration 1 μM): -9% | % RSC ([1]; 6.25 ppm): 41% | % RSC ([1]; 12.5 ppm): 77% | % RSC ([1]; 25 ppm): 95% | % RSC ([1]; 50 ppm): 95% | % RSC ([1]; 100 ppm): 95%

COC(=O)c1cc(O)c(O)c(O)c1 [Compound (2), 3,4,5-Trihydroxybenzoic acid methyl ester]
effect against the steroid 5α-reductase enzyme in words [3]: ineffective

CCCCC/C=C\C/C=C\C/C=C\CCCCC(=O)O [γ-Linolenic acid, reference compound]
IC50 [2]: 14 µM

O=C1c2c(O)cc(O)cc2O[C@H](c2ccc(O)c(O[C@@H]3O[C@H](CO)[C@@H](O)[C@H](O)[C@H]3O)c2)[C@H]1O [Compound (5), (2R,3R)-,2-[3-(β-D-glucopyranosyloxy)-4-hydroxy-phenyl]-2,3-dihydro-3,5,7-trihydroxy-,4H-1-benzo-pyran-4-one]
% inhibition ([2]; test concentration 1 μM): 3% | % RSC ([1]; 6.25 ppm): 10% | % RSC ([1]; 12.5 ppm): 8% | % RSC ([1]; 25 ppm): 10% | % RSC ([1]; 50 ppm): 13% | % RSC ([1]; 100 ppm): 21%

O=C(OC1Cc2c(O)cc(O)cc2OC1c1cc(O)cc(O)c1)c1cc(O)c(O)c(O)c1 (centres unmarked) [Compound (4), 3,4,5-Trihydroxybenzoic acid 2-(3,5-dihydroxy-phenyl)-5,7-dihydroxy-chroman-3-yl ester]
inhibition at 1 µM ([2]; test concentration 1 μM): -2%

CC(C)(C)NC(=O)[C@H]1CC[C@H]2[C@@H]3CC[C@H]4NC(=O)C=C[C@]4(C)[C@H]3CC[C@]12C [Finasteride]
IC50 [2]: 0.025 µM | inhibition at 0.025 µM ([2]; test concentration 0.025 μM): 50% | reduction in erection rate (5α-reductase): up to 8% | reduction in semen volume (5α-reductase): 4% | reduction in sex drive (5α-reductase): 6%

O=C(O)c1cc(O)c(O)c(O)c1 [Compound (1), 3,4,5-Trihydroxybenzoic acid]
effect against the steroid 5α-reductase enzyme in words [3]: ineffective
